Usually EC50 stands for the concentration needed to bring the measured effect to its halfway point.

The source of these data is US12122761B2, “2-azaspiro[3.4]octane derivatives as M4 agonists” (NOVARTIS AG, priority 2019, dated 2024).

Molecules are shown by their SMILES.

In this assay the target is T1, human cloned CHRM4 receptor (M4_CHO cells) (Homo sapiens, UniProt P08173).
T1 construct: expressed in transfected cells; host or cells: CHO-K1
T1 sequence (P08173 1-479): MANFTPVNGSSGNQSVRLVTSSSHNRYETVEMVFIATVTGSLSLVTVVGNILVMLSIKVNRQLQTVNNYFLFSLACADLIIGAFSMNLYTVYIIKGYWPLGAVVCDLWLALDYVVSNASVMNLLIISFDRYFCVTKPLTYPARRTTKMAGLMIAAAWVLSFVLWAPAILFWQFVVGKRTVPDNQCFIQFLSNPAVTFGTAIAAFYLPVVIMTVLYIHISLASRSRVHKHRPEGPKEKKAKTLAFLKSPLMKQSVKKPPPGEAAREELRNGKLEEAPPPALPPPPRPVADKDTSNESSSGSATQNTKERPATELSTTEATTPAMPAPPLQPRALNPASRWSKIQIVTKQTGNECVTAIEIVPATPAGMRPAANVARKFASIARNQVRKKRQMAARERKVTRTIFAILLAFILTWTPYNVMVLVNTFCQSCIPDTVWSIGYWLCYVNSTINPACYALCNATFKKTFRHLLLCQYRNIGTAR
As to the kind of experiment: CHRM4 Ca++ Flux Assay (agonist mode, FDSS 7000EX). It is filed as cell-based. To be noted: for Emax: Percent Activity, read-out: M4 FDSS PA; for EC50: geometric mean if tested more than once, read-out: M4 FDSS EC50. In a few lines:
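Agonist-mode response was expressed as percent of the Carbachol EC100 and fitted with four-parameter nonlinear regression over an 11-point triplicate dose series. Intracellular Ca++ was tracked for 3 min by fluorescent dye in CHO-K1 cells stably expressing human CHRM4. Cells were preincubated 60 min with 20 μM ATP in buffer containing 2.5 mM probenecid.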

Take `Fc1cccc(C2CCN([C@@H]3CCC4(C3)CN(c3cncnc3)C4)CC2)c1OC1COC1` [Example 5W, (R)-6-(4-(3-fluoro-2-(oxetan-3-yloxy)phenyl)piperidin-1-yl)-2-(pyrimidin-5-yl)-2-azaspiro[3.4]octane]: the Emax amounted to 90% and the concentration for a half-maximal effect (EC50) is 1 nM.
On the same counts, the results for `COCCOc1ccccc1C1CCN([C@@H]2CCC3(C2)CN(c2cccnn2)C3)CC1` [Example 5X, (R)-6-(4-(2-(2-methoxyethoxy)phenyl)piperidin-1-yl)-2-(pyridazin-3-yl)-2-azaspiro[3.4]octane] are 24% and 54 nM.
The corresponding values for `COCCOc1ccccc1C1CCN([C@@H]2CCC3(C2)CN(c2cnc(C)cn2)C3)CC1` [Example 5Y, (R)-6-(4-(2-(2-methoxyethoxy)phenyl)piperidin-1-yl)-2-(5-methylpyrazin-2-yl)-2-azaspiro[3.4]octane] are 0% and greater than 25000 nM.
The corresponding values for `COCCOc1ccccc1C1CCN([C@@H]2CCC3(C2)CN(c2ccnnc2)C3)CC1` [Example 5Z, (R)-6-(4-(2-(2-methoxyethoxy)phenyl)piperidin-1-yl)-2-(pyridazin-4-yl)-2-azaspiro[3.4]octane] are 44% and 42 nM.
`COc1ccc(F)cc1C1CCN([C@@H]2CCC3(C2)CN(C(=O)C2COC2)C3)CC1` [Example 6A, (R)-(6-(4-(5-fluoro-2-methoxyphenyl)piperidin-1-yl)-2-azaspiro[3.4]octan-2-yl)(oxetan-3-yl)methanone]: the EC50 was 1 nM.
As for `O=C(C1COC1)N1CC2(CC[C@@H](N3CCC(c4ccc(F)cc4OC(F)F)CC3)C2)C1` [Example 6B, (R)-(6-(4-(2-(difluoromethoxy)-4-fluorophenyl)piperidin-1-yl)-2-azaspiro[3.4]octan-2-yl)(oxetan-3-yl)methanone], the Emax came out at 50% and the EC50 was determined as 5 nM.
In the case of `CC(C)Oc1cc(F)ccc1C1CCN([C@@H]2CCC3(C2)CN(C(=O)C2COC2)C3)CC1` [Example 6D, (R)-(6-(4-(4-fluoro-2-isopropoxyphenyl)piperidin-1-yl)-2-azaspiro[3.4]octan-2-yl)(oxetan-3-yl)methanone], the Emax amounted to 53% and the EC50 was found to be 11 nM.
As to `O=C(N1CC2(CC[C@@H](N3CCC(c4ccccc4C4CCOCC4)CC3)C2)C1)C1(F)CC1` [Example 6E, (R)-(1-fluorocyclopropyl)(6-(4-(2-(tetrahydro-2H-pyran-4-yl)phenyl)piperidin-1-yl)-2-azaspiro[3.4]octan-2-yl)methanone], the Emax turned out to be 65% and the EC50 was 3 nM.
On the same counts, the results for `O=C(C1COC1)N1CC2(CC[C@@H](N3CCC(c4ccccc4OC4CC4)CC3)C2)C1` [Example 7A, (R)-(6-(4-(2-cyclopropoxyphenyl)piperidin-1-yl)-2-azaspiro[3.4]octan-2-yl)(oxetan-3-yl)methanone] are 71% and 4 nM.
The corresponding values for `CC(C)(F)COc1ccccc1C1CCN([C@@H]2CCC3(C2)CN(C(=O)C2COC2)C3)CC1` [Example 7B, (R)-(6-(4-(2-(2-fluoro-2-methylpropoxy)phenyl)piperidin-1-yl)-2-azaspiro[3.4]octan-2-yl)(oxetan-3-yl)methanone] are 44% and 4 nM.
For the compound `O=C(C1COC1)N1CC2(CC[C@@H](N3CCC(c4ccccc4Oc4nccs4)CC3)C2)C1` [Example 7C, (R)-oxetan-3-yl(6-(4-(2-(thiazol-2-yloxy)phenyl)piperidin-1-yl)-2-azaspiro[3.4]octan-2-yl)methanone], the Emax amounted to 39% and the EC50 came out at 4 nM.
On the same counts, the results for `CC(C)(O)CCOc1ccccc1C1CCN([C@@H]2CCC3(C2)CN(C(=O)C2COC2)C3)CC1` [Example 7CC, (R)-(6-(4-(2-(3-hydroxy-3-methylbutoxy)phenyl)piperidin-1-yl)-2-azaspiro[3.4]octan-2-yl)(oxetan-3-yl)methanone] are 46% and 5 nM.
As to `N#CCCOc1ccccc1C1CCN([C@@H]2CCC3(C2)CN(C(=O)C2COC2)C3)CC1` [Example 7D, (R)-3-(2-(1-(2-(oxetane-3-carbonyl)-2-azaspiro[3.4]octan-6-yl)piperidin-4-yl)phenoxy)propanenitrile], the Emax stood at 57% and the concentration for a half-maximal effect (EC50) is 2 nM.
On the same counts, the results for `O=C(C1COC1)N1CC2(CC[C@@H](N3CCC(c4ccccc4OCCOC(F)(F)F)CC3)C2)C1` [Example 7DD, (R)-oxetan-3-yl(6-(4-(2-(2-(trifluoromethoxy)ethoxy)phenyl)piperidin-1-yl)-2-azaspiro[3.4]octan-2-yl)methanone] are 42% and 27 nM.
Consider `O=C(C1COC1)N1CC2(CC[C@@H](N3CCC(c4ccccc4OC[C@@H]4CCOC4)CC3)C2)C1` [Example 7E, oxetan-3-yl((R)-6-(4-(2-(((R)-tetrahydrofuran-3-yl)methoxy)phenyl)piperidin-1-yl)-2-azaspiro[3.4]octan-2-yl)methanone], for which the Emax is 59% and the concentration for a half-maximal effect (EC50) worked out at 3 nM.
The corresponding values for `O=C(C1COC1)N1CC2(CC[C@@H](N3CCC(c4ccccc4OCCOC4COC4)CC3)C2)C1` [Example 7EE, (R)-oxetan-3-yl(6-(4-(2-(2-(oxetan-3-yloxy)ethoxy)phenyl)piperidin-1-yl)-2-azaspiro[3.4]octan-2-yl)methanone] are 61% and 6 nM.
Consider `CC(C)COc1ccccc1C1CCN([C@@H]2CCC3(C2)CN(C(=O)C2COC2)C3)CC1` [Example 7F, (R)-(6-(4-(2-isobutoxyphenyl)piperidin-1-yl)-2-azaspiro[3.4]octan-2-yl)(oxetan-3-yl)methanone], for which the Emax came out at 60% and the half-maximal effective concentration (EC50) was 14 nM.
As for `O=C(C1COC1)N1CC2(CC[C@@H](N3CCC(c4ccccc4OC4CCCC4)CC3)C2)C1` [Example 7G, (R)-(6-(4-(2-(cyclopentyloxy)phenyl)piperidin-1-yl)-2-azaspiro[3.4]octan-2-yl)(oxetan-3-yl)methanone], the Emax worked out at 61% and the concentration for a half-maximal effect (EC50) was 9 nM.
As to `O=C(C1COC1)N1CC2(CC[C@@H](N3CCC(c4ccccc4OCCC(F)(F)F)CC3)C2)C1` [Example 7GG, (R)-oxetan-3-yl(6-(4-(2-(3,3,3-trifluoropropoxy)phenyl)piperidin-1-yl)-2-azaspiro[3.4]octan-2-yl)methanone], the Emax came to 48% and the EC50 was determined as 7 nM.
For `O=C(C1COC1)N1CC2(CC[C@@H](N3CCC(c4ccccc4OC4CCC4)CC3)C2)C1` [Example 7H, (R)-(6-(4-(2-cyclobutoxyphenyl)piperidin-1-yl)-2-azaspiro[3.4]octan-2-yl)(oxetan-3-yl)methanone], the Emax stood at 70% and the EC50 stood at 4 nM.
As to `COC(C)(C)COc1ccccc1C1CCN([C@@H]2CCC3(C2)CN(C(=O)C2COC2)C3)CC1` [Example 7HH, (R)-(6-(4-(2-(2-methoxy-2-methylpropoxy)phenyl)piperidin-1-yl)-2-azaspiro[3.4]octan-2-yl)(oxetan-3-yl)methanone], the Emax is 50% and the EC50 amounted to 19 nM.
Consider `O=C(C1COC1)N1CC2(CC[C@@H](N3CCC(c4ccccc4OCC4CC4)CC3)C2)C1` [Example 7I, (R)-(6-(4-(2-(cyclopropylmethoxy)phenyl)piperidin-1-yl)-2-azaspiro[3.4]octan-2-yl)(oxetan-3-yl)methanone], for which the Emax was 55% and the EC50 came out at 7 nM.
On to `O=C(C1COC1)N1CC2(CC[C@@H](N3CCC(c4ccccc4OCC4(C(F)(F)F)CC4)CC3)C2)C1` [Example 7II, (R)-oxetan-3-yl(6-(4-(2-((1-(trifluoromethyl)cyclopropyl)methoxy)phenyl)piperidin-1-yl)-2-azaspiro[3.4]octan-2-yl)methanone], for which the Emax was 50% and the EC50 was 9 nM.
On to `CCOc1ccccc1C1CCN([C@@H]2CCC3(C2)CN(C(=O)C2COC2)C3)CC1` [Example 7J, (R)-(6-(4-(2-ethoxyphenyl)piperidin-1-yl)-2-azaspiro[3.4]octan-2-yl)(oxetan-3-yl)methanone], for which the EC50 worked out at 6 nM.
On to `O=C(C1COC1)N1CC2(CC[C@@H](N3CCC(c4ccccc4OCC(F)F)CC3)C2)C1` [Example 7JJ, (R)-(6-(4-(2-(2,2-difluoroethoxy)phenyl)piperidin-1-yl)-2-azaspiro[3.4]octan-2-yl)(oxetan-3-yl)methanone], for which the Emax was 49% and the concentration giving a half-maximal response (EC50) was found to be 2 nM.
The corresponding values for `CC(C)Oc1ccccc1C1CCN([C@@H]2CCC3(C2)CN(C(=O)C2COC2)C3)CC1` [Example 7K, (R)-(6-(4-(2-isopropoxyphenyl)piperidin-1-yl)-2-azaspiro[3.4]octan-2-yl)(oxetan-3-yl)methanone] are 76% and 9 nM.
As to `O=C(C1COC1)N1CC2(CC[C@@H](N3CCC(c4ccccc4OCCC4COC4)CC3)C2)C1` [Example 7KK, (R)-oxetan-3-yl(6-(4-(2-(2-(oxetan-3-yl)ethoxy)phenyl)piperidin-1-yl)-2-azaspiro[3.4]octan-2-yl)methanone], the Emax was found to be 47% and the EC50 was 2 nM.
